Test results published in US4804656A, “Novel androstane-17β-carboxylic acid esters” (Aktiebolaget Draco, priority 1985, dated 1989).

Biological target: T1, glucocorticoid receptor (Rattus norvegicus, UniProt P06536)
T1 construct: The thymus was removed and put into ice-cold saline; The tissue was homogenized in a Potter Elvehjem homogenizer; from tissue; host or cells: thymus of male Sprague-Dawley rats, 20,000×g supernatant of homogenate
T1 sequence (P06536 1-795): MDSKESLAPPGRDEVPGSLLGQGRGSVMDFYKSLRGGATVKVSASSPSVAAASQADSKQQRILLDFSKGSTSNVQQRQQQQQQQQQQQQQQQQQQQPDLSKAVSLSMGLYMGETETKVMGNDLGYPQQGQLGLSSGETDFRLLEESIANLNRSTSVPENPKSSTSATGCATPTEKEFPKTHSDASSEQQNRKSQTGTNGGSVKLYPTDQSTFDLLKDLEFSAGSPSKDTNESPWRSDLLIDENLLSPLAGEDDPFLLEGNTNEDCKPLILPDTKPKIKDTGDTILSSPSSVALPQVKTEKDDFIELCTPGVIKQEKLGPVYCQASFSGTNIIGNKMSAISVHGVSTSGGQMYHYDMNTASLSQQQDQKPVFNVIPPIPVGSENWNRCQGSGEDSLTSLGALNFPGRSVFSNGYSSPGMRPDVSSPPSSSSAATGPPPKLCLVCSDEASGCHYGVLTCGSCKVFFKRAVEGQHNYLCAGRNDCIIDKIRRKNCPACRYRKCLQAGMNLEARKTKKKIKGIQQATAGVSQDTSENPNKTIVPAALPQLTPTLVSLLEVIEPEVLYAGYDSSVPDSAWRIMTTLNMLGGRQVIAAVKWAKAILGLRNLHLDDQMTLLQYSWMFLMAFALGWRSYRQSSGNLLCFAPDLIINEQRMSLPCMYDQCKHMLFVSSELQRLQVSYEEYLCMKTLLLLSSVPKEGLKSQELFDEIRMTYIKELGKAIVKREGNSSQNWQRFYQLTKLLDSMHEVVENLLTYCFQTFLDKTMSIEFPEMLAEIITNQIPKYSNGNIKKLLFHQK
Experiment: Affinity to the glucocorticoid receptor: competition with 3H-labelled dexamethasone in rat thymus 20,000×g supernatant
Conditions: curves compared at the 50% specific binding level, referenced to budesonide = 1, 3 nM 3H-dexamethasone, about 24 h at 0° C.
Description: All steroids according to the present invention are physiologically active compounds. The affinity of the novel androstane-17β-carboxylic acid esters to the glucocorticoid receptor has been used as a model for determination of the anti-inflammatory potency.
Male Sprague-Dawley rats, one to two months of age, were used throughout the investigation. The thymus was removed and put into ice-cold saline. The tissue was homogenized in a Potter Elvehjem homogenizer in 10 ml of a buffer containing 20 mM Tris, pH 7.4, 10% (w/v) glycerol, 1 mM EDTA, 20 mM NaMoO4, 10 mM mercaptoethanol. The homogenate was centrifuged for 15 min at 20,000×g. Portions of the 20,000×g supernatant (230 μl) were incubated for about 24 h at 0° C. with 100 μl phenylmethylsulphonylfluoride (an esterase inhibitor, final conc. 0.5 mM), 20 μl unlabelled competitor and 50 μl ^3 H-labelled dexamethasone (final conc. 3 nM). Bound and free steroid were separated by incubating the mixture with 60 μl 2.5% (w/v) charcoal and 0.25% (w/v) dextran T70 suspension in […], pH 7.4, 1 mM EDTA, and […] for 10 min at 0° C. Following a centrifugation at 500×g for 10 min, 230 μl of the supernatant was counted in 10 ml Insta-Gel in a Packard scintillation spectrophotometer. The supernatants were incubated with a) [^3 H]dexamethasone alone, b) [^3 H] dexamethasone plus 1000 fold excess of unlabelled dexamethasone and c) [^3 H] dexamethasone plus 0.03-300 fold "excess" competitor. The nonspecific binding was determined when 1000 fold excess of unlabelled dexamethasone was added to [^3 H]-labelled dexamethasone.
The radioactivity bound to the receptor in the presence of competitor divided by the radioactivity bound to the receptor in the absence of competitor multiplied by 100 gives the percentage specific binding of labelled dexamethasone. For each concentration of a competitor the percentage specifically bound radioactivity is plotted against the log of concentration of competitor. The curves are compared at the 50% specific binding level and reference to budesonide, which is assigned a relative binding affinity (RBA) of 1.

Structure (SMILES)	RBA (relative binding affinity)
CCCCC(=O)O[C@]1(C(=O)OC(C)OC(=O)OC(C)C)[C@@H](C)C[C@H]2[C@@H]3CCC4=CC(=O)C=C[C@]4(C)[C@@]3(F)[C@@H](O)C[C@@]21C (stereo partly shown) [Example 22b]	0.77
CCC(=O)O[C@]1(C(=O)OC(C)OC(=O)OC(C)C)[C@@H](C)C[C@H]2[C@@H]3CCC4=CC(=O)C=C[C@]4(C)[C@@]3(F)[C@@H](O)C[C@@]21C (stereo partly shown) [Example 8b]	1.50
CCC(=O)O[C@]1(C(=O)OC(C)OC(=O)OC)[C@@H](C)C[C@H]2[C@@H]3CCC4=CC(=O)C=C[C@]4(C)[C@@]3(F)[C@@H](O)C[C@@]21C (stereo partly shown) [Example 6b]	0.42
CCC(=O)O[C@]1(C(=O)OC(C)OC(=O)OC2CCCC2)[C@@H](C)C[C@H]2[C@@H]3CCC4=CC(=O)C=C[C@]4(C)[C@@]3(F)[C@@H](O)C[C@@]21C (stereo partly shown) [Example 14b]	1.2
CCCCC(=O)O[C@]1(C(=O)OC(C)OC(=O)N(CC)CC)[C@@H](C)C[C@H]2[C@@H]3CCC4=CC(=O)C=C[C@]4(C)[C@@]3(F)[C@@H](O)C[C@@]21C (single isomer, unassigned) [3 (epimer B), 1'-diethylcarbamoyloxyethyl 9αfluoro-11β-hydroxy-16β-methyl-3-oxo-17α-valeroyloxyandrosta-1,4-diene-17β-carboxylate]	0.47
C=CCOC(=O)OC(C)OC(=O)[C@@]1(OC(=O)CC)[C@@H](C)C[C@H]2[C@@H]3CCC4=CC(=O)C=C[C@]4(C)[C@@]3(F)[C@@H](O)C[C@@]21C (stereo partly shown) [Example 9b]	0.39
CCCOC(=O)OC(C)OC(=O)[C@@]1(OC(=O)CC)[C@@H](C)C[C@H]2[C@@H]3CCC4=CC(=O)C=C[C@]4(C)[C@@]3(F)[C@@H](O)C[C@@]21C (stereo partly shown) [Example 7b]	0.95
CCOC(=O)OC(C)OC(=O)[C@@]1(OC(=O)CC)[C@@H](C)C[C@H]2[C@@H]3CCC4=CC(=O)C=C[C@]4(C)[C@@]3(Cl)[C@@H](O)C[C@@]21C (stereo partly shown) [Example 28b]	1.0
CCC(=O)O[C@]1(C(=O)OC(C)OC(=O)OCC2CC2)[C@@H](C)C[C@H]2[C@@H]3CCC4=CC(=O)C=C[C@]4(C)[C@@]3(Cl)[C@@H](O)C[C@@]21C (stereo partly shown) [Example 32b]	0.86
CCC(=O)O[C@]1(C(=O)OC(C)OC(=O)OC2CCC2)[C@@H](C)C[C@H]2[C@@H]3CCC4=CC(=O)C=C[C@]4(C)[C@@]3(F)[C@@H](O)C[C@@]21C (stereo partly shown) [Example 13b]	1.3
C=C(C)COC(=O)OC(C)OC(=O)[C@@]1(OC(=O)CC)[C@@H](C)C[C@H]2[C@@H]3CCC4=CC(=O)C=C[C@]4(C)[C@@]3(F)[C@@H](O)C[C@@]21C (stereo partly shown) [Example 16b]	0.51
CCC(=O)O[C@]1(C(=O)OC(C)OC(C)=O)[C@@H](C)C[C@H]2[C@@H]3CCC4=CC(=O)C=C[C@]4(C)[C@@]3(F)[C@@H](O)C[C@@]21C (single isomer, unassigned) [4 (epimer B), 1'-acetyloxyethyl 9α-fluoro-11β-hydroxy-16β-methyl-3-oxo-17α-propionyloxyandrosta-1,4-diene-17β-carboxylate]	0.69
CCC(=O)O[C@]1(C(=O)OC(C)OC(=O)NC(C)C)[C@@H](C)C[C@H]2[C@@H]3CCC4=CC(=O)C=C[C@]4(C)[C@@]3(F)[C@@H](O)C[C@@]21C (single isomer, unassigned) [2 (epimer B), 1'-isopropylcarbamoyloxyethyl 9α-fluoro-11β-hydroxy-16β-methyl-3-oxo-17α-propionyloxyandrosta-1,4-diene-17β-carboxylate]	0.14
CCC(=O)O[C@]1(C(=O)OC(C)OC(=O)OC2CCCCC2)[C@@H](C)C[C@H]2[C@@H]3CCC4=CC(=O)C=C[C@]4(C)[C@@]3(F)[C@@H](O)C[C@@]21C (stereo partly shown) [Example 15b]	0.54
CCC(=O)O[C@]1(C(=O)OC(C)OC(=O)OCc2ccc([N+](=O)[O-])cc2)[C@@H](C)C[C@H]2[C@@H]3CCC4=CC(=O)C=C[C@]4(C)[C@@]3(F)[C@@H](O)C[C@@]21C (single isomer, unassigned) [Example 19b]	0.53
CCOC(=O)OC(C)OC(=O)[C@@]1(OC(=O)CC)[C@@H](C)C[C@H]2[C@@H]3CCC4=CC(=O)C=C[C@]4(C)[C@@]3(F)[C@@H](O)C[C@@]21C (single isomer, unassigned) [1 (epimer B), 1'-ethoxycarbonyloxyethyl 9α-fluoro-11β-hydroxy-16β-methyl-3-oxo-17α-propionyloxyandrosta-1,4-diene-17β-carboxylate]	0.80
CCC(=O)O[C@]1(C(=O)OC(C)OC(=O)OCC(C)C)[C@@H](C)C[C@H]2[C@@H]3CCC4=CC(=O)C=C[C@]4(C)[C@@]3(F)[C@@H](O)C[C@@]21C (stereo partly shown) [Example 10b]	0.82
CCOC(=O)OC(C)OC(=O)[C@@]1(OC(=O)CC)[C@H](C)C[C@H]2[C@@H]3C[C@H](F)C4=CC(=O)C=C[C@]4(C)[C@@]3(F)[C@@H](O)C[C@@]21C (single isomer, unassigned) [Example 26b]	0.45
CCOC(=O)OC(C)OC(=O)[C@@]1(OC(=O)CC)[C@H](C)C[C@H]2[C@@H]3CCC4=CC(=O)C=C[C@]4(C)[C@@]3(F)[C@@H](O)C[C@@]21C (stereo partly shown) [Example 24b]	0.55
